The NIST ThermoML archive (doi:10.1021/je401057z)
± gives the expanded uncertainty stated by the source. One block for each molecule: values may come before it.

Conditions: Liquid

SMILES: Cc1ccccc1C [1,2-dimethylbenzene]
vapor or sublimation pressure (456.1 K): 250 ± 10 kPa

SMILES: Cc1cccc(C)c1 [1,3-dimethylbenzene]
vapor or sublimation pressure (450.1 K): 250 ± 10 kPa

SMILES: Cc1ccc(C)cc1 [1,4-dimethylbenzene]
vapor or sublimation pressure (410.78 K, Ebulliometric method (Recirculating still)): 100.04 ± 3.2 kPa | vapor or sublimation pressure (412.63 K, Ebulliometric method (Recirculating still)): 105 ± 3.4 kPa | vapor or sublimation pressure (419.48 K, Ebulliometric method (Recirculating still)): 124.93 ± 4 kPa | vapor or sublimation pressure (433.57 K, Ebulliometric method (Recirculating still)): 174.88 ± 5.6 kPa | vapor or sublimation pressure (439.37 K, Ebulliometric method (Recirculating still)): 199.86 ± 6.4 kPa | vapor or sublimation pressure (444.66 K, Ebulliometric method (Recirculating still)): 224.86 ± 7.2 kPa | vapor or sublimation pressure (449.56 K, Ebulliometric method (Recirculating still)): 250.04 ± 8 kPa | vapor or sublimation pressure (449.6 K, Ebulliometric method (Recirculating still)): 250 ± 8 kPa

vapor or sublimation pressure (371.55 K): 100.05 ± 3.5 kPa | vapor or sublimation pressure (373.4 K): 104.94 ± 3.7 kPa | vapor or sublimation pressure (379.8 K): 124.9 ± 4.3 kPa | vapor or sublimation pressure (386.94 K): 149.96 ± 5.1 kPa | vapor or sublimation pressure (393.14 K): 174.7 ± 6 kPa | vapor or sublimation pressure (398.64 K): 199.94 ± 6.8 kPa | vapor or sublimation pressure (403.68 K): 224.91 ± 7.6 kPa | vapor or sublimation pressure (408.28 K): 249.95 ± 8.4 kPa | vapor or sublimation pressure (408.3 K): 250 ± 8 kPa
SMILES: CC(C)CC(C)(C)C [2,2,4-trimethylpentane]

vapor or sublimation pressure (447.2 K): 250 ± 10 kPa
SMILES: CCc1ccccc1 [ethylbenzene]
